Measured values published in patent publication US20100098746A1, “COMPOSITIONS AND METHODS FOR TREATING PERIODONTAL DISEASE COMPRISING CLONIDINE, SULINDAC AND/OR FLUOCINOLONE” (Warsaw Orthopedic, Inc., priority 2008, published 2010).

Columns and labels:
[1] = system: thermal hyperalgesia, Bennett Model; conditions: subcutaneously at 0.02 mg/kg/day
Experimental: (§1) The efficacy of a five Month Clonidine/Polymer Drug Depot in the Rat Chronic Constriction Injury Model was evaluated. The animal model was the Bennett Model (Wistar rat). The purpose: To determine whether a five month polymer clonidine-eluting depot can improve pain associated behavioral responses in a rat model of neuropathic pain with an inflammatory component.
(§2) Experimental Design: Four loose chromic gut ligatures, 1 mm apart, were tied around the common sciatic nerve at mid-thigh. Each animal received treatment of test or control article—according to the dosing described in Table 5.
(§3) The present study was conducted for a period of 64 days and employed the following two tests: (1) the Hargreaves test; and (2) the von Frey test. The Hargreaves Tests of Thermal Hyperalgesia were conducted on days 7, 14, 21, 28, 35, 42, 49, 56 and 63. The von Frey monofilament test of mechanical allodynia (performed the day following Thermal testing) were conducted on days-8, 15, 22, 29, 36, 43, 50, 57 and 64.

[2] = system: mechanical allodynia, Bennett Model; conditions: subcutaneously at 0.02 mg/kg/day
Experimental: as §1, §2, §3

[3] = system: inflammation induced in minipigs; conditions: high dose clonidine (150 μg), injected; days 1, 3 and 4 post-surgery
Description: In a separate experiment, inflammation was induced in minipigs and the minipigs were given clonidine, bupivacaine, or morphine. The surgical site was reviewed for inflammation while the minipigs were anesthesized and on day 4. Scoring of inflammation was reviewed in the area of incision for redness with the following scores: 0—no redness; 1—slightly red limited to area of incision; 2—massive spread redness and swelling with the following scores 0—no swelling; 1—slightly swelling; 3—massive swelling. Redness and swelling were summed up so the minimum score is 0 and maximum score is 4. […] The low dose clonidine given was 75 μg.

murine RAW NO+ cell line = conditions: for inhibitory effects on osteoclast differentiation and resorption: clonidine tested at 100, 10, 1, 0.1 μM, sulindac at 140, 70, 35, 17.5, 8.75 μM, RANK L 30 ng/ml; for lowest inhibitory concentration: osteoclast differentiation and resorption
Experimental: The purpose of this set of experiments was to narrow the number of periodontal candidates by determining the lowest dose of the drug that inhibits or blocks osteoclast differentiation and/or resorption.
Cell culture complete media was prepared by adding 10% FBS to high glucose DMEM. • 2. A nitric oxide-containing murine RAW NO+ cell line, f frozen in DMSO-containing medium under liquid nitrogen, was used for these assays. • 3. Cells were thawed in a 37° C. water bath and resuspended in complete media (see #1 above). • 4. The cells were plated in a 175 cm^2 polystyrene, white top, non-adherent culture flask at a density of 1×10^4 cells/cm^2 and allowed to settle overnight (Day-1, Table G). • 5. The media was changed approximately 24 hours after the initial plating (Day 0, Table G). • 6. After approximately two days of proliferation, the cells were harvested with a cell scraper, collected in a 50 mL conical tube and centrifuged at 1000 rpm to pellet the cells. • 7. The cell pellets were resuspended in 4 mL complete media, counted with a hemocytometer and plated at a density of 0.125×10^4 cells/0.25 ml/well in a 16 well osteologic assay slide (Day 1, Table G). • 8. The cells were allowed to adhere for 24 hours, the media was removed and fresh differentiation media was prepared that contained complete media+RANK L (30 ng/ml; Pepro Tech #315-11)+/−drug (Day 2, Table G). […] Step 8 was repeated on days 5 and 7 (Table G). • 10. On day 9 the plates were harvested by removing the media, rinsing with dH2O and treated with bleach for 7 minutes. • 11. The bleach was disposed of in the drug waste container and the wells and gaskets were removed from the slide. • 12. The plates were rinsed with H2O 5 times, dried and analyzed for matrix degradation as described below
The clonidine concentrations tested were 100 μM, 10 μM, 1 μM, 0.1 μM and the sulindac concentrations tested were 140 μM, 70 μM, 35 μM, 17.5 μM, and 8.75 μM.

[4] = system: neuropathic pain, CCI model; experiment: 2-month chronic constriction injury (CCI) model of neuropathic pain (fluocinolone), thermal paw withdrawal latency and mechanical threshold; assay type: in vivo
Experimental: A 2-month chronic constriction injury (CCI) model of neuropathic pain was used to evaluate different formulations of a corticosteroid, fluocinolone, encapsulated in bioerodable polymers compared to fluocinolone given subcutaneously (SC). Different formulations as provided in Table B below were evaluated for reducing pain-associated behaviors: Thermal paw withdrawal latency was evaluated at baseline 7, 14, 21, 28, 35, 42, 49, and 56 days post-operatively, while mechanical threshold was evaluated at 8, 15, 22, 29, 36, 43, 50, and 57 days post-operatively. […] The pain of periodontal disease is due to the inflammation. […] Mechanical allodynia was measured using von Frey monofilaments (Stoelting, Wood Dale, Ill.) with varying stiffness (2.0-15.0 g) on Days 1, 8, 15, 22, 29, 36, 43, 50 and 57 as described previously. […] The 50% paw withdrawal threshold response was determined by a sequential increasing and/or decreasing of the stimulus strength (the “up-down method” of Dixon). […] The 50% paw withdrawal threshold was calculated using the formula: 10 (Xf+kd)/10,000, where Xf is the final von Frey filament used (log units), k is a value that analyzes the response pattern (taken from the table published by Chaplan et al.), and d is the mean difference between stimuli (log units). The mean and standard error of the mean (SEM) were determined for each treatment group.

[5] = system: mechanical allodynia, Bennett Model; experiment: Rat chronic constriction injury model, von Frey test of mechanical allodynia (sulindac); assay type: in vivo, Wistar rat; conditions: intraperitoneally at 0.4 mg/kg/day
Experimental: as §1, with “5” for “five”, “Sulindac/Polymer” for “Clonidine/Polymer”, “sulindac-eluting” for “clonidine-eluting”, “pain.” for “pain with an inflammatory component.”
(§4) Experimental Design: Four loose chromic gut ligatures, 1 mm apart, were tied around the common sciatic nerve at mid-thigh. Each animal received treatment of test or control article—according to the dosing described in Table 10.
(§5) To date, the present study was conducted for a period of 57 days and employed the following two tests: (1) the Hargreaves test on days 7, 14, 21, 28, 35, 42, 49, and 56; and (2) the von Frey test on days 8, 15, 22, 29, 36, 43, 50, and 57.

[6] = system: thermal hyperalgesia, Bennett Model; experiment: Rat chronic constriction injury model, Hargreaves test of thermal hyperalgesia (sulindac); assay type: in vivo, Wistar rat; conditions: intraperitoneally at 0.4 mg/kg/day
Experimental: as §1, with “5” for “five”, “Sulindac/Polymer” for “Clonidine/Polymer”, “sulindac-eluting” for “clonidine-eluting”, “pain.” for “pain with an inflammatory component.”
as §4, §5

Compound | pain behavioral response, thermal hyperalgesia, compared to unloaded polymer depots [1] | pain behavioral response (percentage of baseline), thermal hyperalgesia ([1]; unloaded polymer depots 45%) [%] | pain behavioral response, mechanical allodynia, compared to unloaded polymer depots [2] | inflammation score (redness + swelling, 0 to 4) [3] | osteoclast differentiation and bone resorption compared to RANK only treated control wells (murine RAW NO+ cell line; clonidine at 100 μM and 10 μM) | inhibitory effects on osteoclast differentiation and resorption (murine RAW NO+ cell line) | lowest inhibitory concentration (murine RAW NO+ cell line) [µM] | pain threshold [4] | pain behavioral response, mechanical allodynia, compared to unloaded polymer depots (85/15 PLGA Control) [5] | pain behavioral response, thermal hyperalgesia, compared to unloaded polymer depot (85/15 PLGA Control) [6]
Clc1cccc(Cl)c1N=C1NCCN1 [clonidine, 2,6-dichloro-N-2-imidazolidinyldenebenzenamine] | consistently reduced the behavioral response | 58 | reduced the behavioral response | very low | significantly decreased | significant inhibitory effects | 10 | – | – | –
CC1(C)O[C@@H]2C[C@H]3[C@@H]4C[C@H](F)C5=CC(=O)C=C[C@]5(C)[C@@]4(F)[C@@H](O)C[C@]3(C)[C@]2(C(=O)CO)O1 [fluocinolone, 6α-,9α-Difluoro-16 α-hydroxyprednisolone 16,17-acetonide] | – | – | – | – | – | – | – | reduced pain threshold | – | –
CC1=C(CC(=O)O)c2cc(F)ccc2/C1=C\c1ccc([S+](C)[O-])cc1 (stereo not drawn) [sulindac] | – | – | – | – | – | significant inhibitory effects | 140.3 | – | reduced the behavioral response | consistently reduced the behavioral response
